Laboratory results as given in ChEMBL document CHEMBL1201862, “PubChem BioAssay data set” (2004).
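Following 48 hours of exposure in 96-well plates, responses at five concentrations were used to interpolate endpoints linearly. Abbreviation: GI50, concentration required for 50% inhibition of growth.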 The source made the active and inactive calls. Rule as the data show it: active = GI50 up to about 1.1 µM and inactive = higher.

Tests used:
Test in all cases: growth of human tumour cells (NCI), 48 h
M19-MEL = system: M19-MEL
KM-20L2 = system: KM-20L2
DMS-273 = system: DMS-273
XF498 = system: XF498
DLD-1 = system: DLD-1
HOP-18 = system: HOP-18
DMS-114 = system: DMS-114
SNB-78 = system: SNB-78
RXF 631 = system: RXF 631

N#C/C(=C\c1ccc(CP(=O)(O)O)cc1)C(N)=O was tested, and the GI50 (M19-MEL) was > 100 µM (inactive), the GI50 (KM-20L2) was > 100 µM (inactive) and the GI50 (DMS-273) was > 100 µM (inactive). For the same compound, the GI50 (XF498) was > 100 µM (inactive), the GI50 (DLD-1) was > 100 µM (inactive) and the GI50 (HOP-18) was > 100 µM (inactive). The GI50 (DMS-114) was > 100 µM (inactive).
With O=C1C(=O)N(c2ccc(Cl)cc2Cl)C(=O)C(=O)C1c1nc2ccccc2o1 the GI50 (SNB-78) was > 100 µM (inactive), the GI50 (M19-MEL) was > 100 µM (inactive) and the GI50 (KM-20L2) was > 100 µM (inactive). For the same compound, the GI50 (DMS-273) was > 100 µM (inactive), the GI50 (XF498) was > 100 µM (inactive) and the GI50 (RXF 631) was > 100 µM (inactive). The GI50 (DLD-1) was > 100 µM (inactive) and the GI50 (HOP-18) was > 100 µM (inactive).
CCOC(=O)c1ccc(/N=N\c2ccc(N(CCC#N)CCC#N)cc2C)cc1 was tested, and the GI50 (SNB-78) was > 100 µM (inactive), the GI50 (M19-MEL) was > 100 µM (inactive) and the GI50 (DMS-273) was > 100 µM (inactive). For the same compound, the GI50 (RXF 631) was > 100 µM (inactive), the GI50 (DLD-1) was > 100 µM (inactive) and the GI50 (HOP-18) was 51.6 µM (inactive). For the same compound, the GI50 (DMS-114) was > 100 µM (inactive).
For CC1=NN(c2ccccc2)C(=O)C1/N=N/c1ccc(Br)c(C)c1 (configuration not stated), the GI50 (SNB-78) was > 100 µM (inactive), the GI50 (M19-MEL) was > 100 µM (inactive) and the GI50 (KM-20L2) was > 100 µM (inactive). For the same compound, the GI50 (DMS-273) was > 100 µM (inactive), the GI50 (XF498) was > 100 µM (inactive) and the GI50 (RXF 631) was > 100 µM (inactive). For the same compound, the GI50 (DLD-1) was > 100 µM (inactive), the GI50 (HOP-18) was 0.0562 µM (active) and the GI50 (DMS-114) was > 100 µM (inactive).
With O=C1NC2C(CCO)CC=C[C@H]2c2cc3c(cc21)OCO3 (some centres not stated) the GI50 (SNB-78) was > 100 µM (inactive), the GI50 (M19-MEL) was > 100 µM (inactive) and the GI50 (KM-20L2) was > 100 µM (inactive). The GI50 (DMS-273) was > 100 µM (inactive), the GI50 (DLD-1) was > 100 µM (inactive) and the GI50 (DMS-114) was > 100 µM (inactive).
NC1=NC2=C(CCCC2)C(c2cccs2)S1 (configuration not stated) was tested, and the GI50 (SNB-78) was > 100 µM (inactive), the GI50 (M19-MEL) was > 100 µM (inactive) and the GI50 (KM-20L2) was > 100 µM (inactive). For the same compound, the GI50 (DMS-273) was > 100 µM (inactive), the GI50 (XF498) was > 100 µM (inactive) and the GI50 (HOP-18) was 33.5 µM (inactive). The GI50 (DMS-114) was 42.8 µM (inactive).
With COc1cc(C)c(O)c(C(=O)O)c1 the GI50 (SNB-78) was > 100 µM (inactive), the GI50 (M19-MEL) was > 100 µM (inactive) and the GI50 (KM-20L2) was > 100 µM (inactive). The GI50 (DMS-273) was > 100 µM (inactive), the GI50 (XF498) was > 100 µM (inactive) and the GI50 (DLD-1) was > 100 µM (inactive). For the same compound, the GI50 (HOP-18) was > 100 µM (inactive) and the GI50 (DMS-114) was > 100 µM (inactive).
Cc1cc(=O)n2c(cc3cccccc32)n1 was tested, and the GI50 (SNB-78) was > 100 µM (inactive), the GI50 (KM-20L2) was > 100 µM (inactive) and the GI50 (DMS-273) was > 100 µM (inactive).
With CC(C)(C)C1CCC2c3c([nH]c4ncccc34)C3C(=O)N(c4ccccc4)C(=O)C3C2C1 (configuration not stated) the GI50 (SNB-78) was 40.4 µM (inactive), the GI50 (M19-MEL) was > 100 µM (inactive) and the GI50 (KM-20L2) was > 100 µM (inactive). The GI50 (DMS-273) was > 100 µM (inactive), the GI50 (XF498) was > 100 µM (inactive) and the GI50 (DLD-1) was > 100 µM (inactive). The GI50 (HOP-18) was > 100 µM (inactive) and the GI50 (DMS-114) was 80 µM (inactive).
Cc1ccc(NC(=O)CC/C(CC(=O)C(C)(C)C)=N/Nc2nnc(C)n2N)cc1C was tested, and the GI50 (SNB-78) was > 100 µM (inactive), the GI50 (M19-MEL) was > 100 µM (inactive) and the GI50 (KM-20L2) was > 100 µM (inactive). For the same compound, the GI50 (DMS-273) was 95.1 µM (inactive), the GI50 (XF498) was > 100 µM (inactive) and the GI50 (RXF 631) was > 100 µM (inactive). For the same compound, the GI50 (HOP-18) was > 100 µM (inactive) and the GI50 (DMS-114) was 62.2 µM (inactive).
CC(C)(C)NC(=O)C12C3C4C1C1C2C3C41I (configuration not stated) was tested, and the GI50 (SNB-78) was > 100 µM (inactive), the GI50 (M19-MEL) was > 100 µM (inactive) and the GI50 (KM-20L2) was > 100 µM (inactive). For the same compound, the GI50 (DMS-273) was > 100 µM (inactive), the GI50 (XF498) was > 100 µM (inactive) and the GI50 (RXF 631) was > 100 µM (inactive). The GI50 (DMS-114) was > 100 µM (inactive).
In the case of COC(=O)c1cc(-c2ccc(OC)c(OC)c2)oc1-c1ccc(OC)c(OC)c1, the GI50 (SNB-78) is reported as 31.7 µM (inactive), the GI50 (M19-MEL) is reported as 41.3 µM (inactive) and the GI50 (KM-20L2) is reported as 53.3 µM (inactive). The GI50 (DMS-273) was 67.1 µM (inactive), the GI50 (XF498) was 37.3 µM (inactive) and the GI50 (RXF 631) was 30.5 µM (inactive). For the same compound, the GI50 (DLD-1) was 30.1 µM (inactive), the GI50 (HOP-18) was 29.2 µM (inactive) and the GI50 (DMS-114) was 31.9 µM (inactive).
CSc1ccc(-c2cn3ccsc3n2)c(O)c1 was tested, and the GI50 (SNB-78) was 42.3 µM (inactive), the GI50 (KM-20L2) was > 65.2 µM (inactive) and the GI50 (DMS-273) was 32.8 µM (inactive). The GI50 (XF498) was 30.2 µM (inactive), the GI50 (RXF 631) was > 70.8 µM (inactive) and the GI50 (DLD-1) was 40.4 µM (inactive). For the same compound, the GI50 (HOP-18) was > 76.6 µM (inactive) and the GI50 (DMS-114) was 26.1 µM (inactive).
With O=C(NCCCN1CCN(CCCNC(=O)Nc2cc(Cl)ccc2Cl)CC1)Nc1cc(Cl)ccc1Cl the GI50 (SNB-78) was 90.6 µM (inactive), the GI50 (KM-20L2) was 28.4 µM (inactive) and the GI50 (DMS-273) was 22.3 µM (inactive). The GI50 (XF498) was > 100 µM (inactive), the GI50 (DLD-1) was > 100 µM (inactive) and the GI50 (HOP-18) was > 100 µM (inactive). The GI50 (DMS-114) was 38.5 µM (inactive).
